From patent publication US20240116985A1, “STAPLED PEPTIDES AND METHODS THEREOF” (priority 2020, published 2024)
Values after ≈ are worked out from the molar mass of the structure shown. Read-outs that look alike come from different tables or passages of the source.

Experiments:
[1] = biological target: T1, full-length beta-Catenin (Uniprot ID P35222) (Homo sapiens, UniProt P35222); experiment: Fluorescence polarization IC50 (beta-catenin / 5FAM-TCF4 10-53 competition); format: binding
T1 construct: 10 nM full-length beta-Catenin (Uniprot ID P35222)
T1 sequence (P35222 1-781): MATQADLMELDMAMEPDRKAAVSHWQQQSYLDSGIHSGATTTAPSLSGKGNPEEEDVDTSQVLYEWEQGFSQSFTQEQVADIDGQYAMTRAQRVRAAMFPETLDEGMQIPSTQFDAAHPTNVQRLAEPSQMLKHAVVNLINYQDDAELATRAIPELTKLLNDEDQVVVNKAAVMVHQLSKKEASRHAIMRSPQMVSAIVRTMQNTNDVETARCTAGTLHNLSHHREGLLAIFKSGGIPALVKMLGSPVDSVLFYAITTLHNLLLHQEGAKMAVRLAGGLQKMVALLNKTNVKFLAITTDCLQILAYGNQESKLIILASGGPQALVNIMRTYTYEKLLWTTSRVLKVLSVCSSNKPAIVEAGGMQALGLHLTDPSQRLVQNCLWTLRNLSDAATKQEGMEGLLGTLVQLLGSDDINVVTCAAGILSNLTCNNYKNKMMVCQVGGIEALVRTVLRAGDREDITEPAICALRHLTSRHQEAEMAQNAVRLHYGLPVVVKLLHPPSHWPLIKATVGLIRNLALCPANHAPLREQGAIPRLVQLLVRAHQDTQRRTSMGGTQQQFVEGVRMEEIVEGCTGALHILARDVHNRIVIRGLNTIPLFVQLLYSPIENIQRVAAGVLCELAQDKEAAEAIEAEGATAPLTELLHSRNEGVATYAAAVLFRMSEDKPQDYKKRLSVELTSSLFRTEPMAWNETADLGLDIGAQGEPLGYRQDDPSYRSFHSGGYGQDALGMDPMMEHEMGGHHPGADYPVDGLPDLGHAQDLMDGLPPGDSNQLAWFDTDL

Solubility in PBS = format: physicochemical
Summary of the method: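 The PBS solution was ultracentrifuged and the supernatant analyzed by HPLC. Its peak area was divided by that of a 50 μM peptide DMSO reference injection and multiplied by 50 uM to give solubility.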

CHI Log D procedure = format: physicochemical; conditions: for CHI Log D: pH 7.4; for chromatographic logD: pH 7.4, CHI Log D
[2] = fluorescence polarization, beta-catenin, read-out: FP EC50
[3] = fluorescence polarization, read-out: beta-Catenin FP IC50

Row | IC50 [1, 2] [µM] | IC50 ([1]; read-out: beta-Catenin FP IC50) [µM] | Solubility (Solubility in PBS) [µM] | CHI Log D (CHI Log D procedure) | IC50 [1, 3] [µM] | IC50 ([1]; read-out: FP EC50) [µM] | chromatographic logD (CHI Log D procedure) | IC50 ([1]; Table E2-1, read-out: beta-Catenin FP IC50) [µM] | Solubility (Solubility in PBS; Solubility (uM)) [µM] | SMILES
1 | 1.2 | 1.2 | 45 (≈ 88.3 µg/mL) | 1.998 |  |  |  |  |  | CC(=O)N1CCC[C@]12CC=CCCCC1(CCCC=CCCCOC(=O)N3CC[C@@](C(=O)N[C@@H](Cc4ccsc4)C(=O)N[C@@H](Cc4csc5ccccc45)C(=O)N[C@@H](CO)C(N)=O)(C3)NC(=O)[C@H](CO)NC(=O)[C@H](Cc3ccccc3)NC(=O)[C@H](C)NC(=O)[C@H](C)NC(=O)[C@H](CN(CC(=O)O)CC(F)(F)F)NC(=O)[C@H](CC(=O)O)NC1=O)NC(=O)[C@H](CC(C)(C)C)NC(=O)[C@H](CC(=O)O)NC2=O (stereo partly drawn) [I-955, Ac-PL3-Asp-Npg-B5-Asp-TfeGA-Ala-Ala-Phe-Ser-PyrS2-3Thi-BztA-Ser-NH2]
2 | 1.47 | 1.47 | 47 (≈ 94.1 µg/mL) | 1.971 |  |  |  |  |  | CC(=O)N1CCC[C@]12CC=CCCCC1(CCCC=CCCCOC(=O)N3CC[C@@](C(=O)N[C@@H](Cc4ccsc4)C(=O)N[C@@H](Cc4csc5ccccc45)C(=O)N[C@@H](CCO)C(N)=O)(C3)NC(=O)[C@H](CC(N)=O)NC(=O)[C@H](Cc3ccccc3)NC(=O)[C@H](C)NC(=O)[C@H](C)NC(=O)[C@H](CN(CC(=O)O)CC(F)(F)F)NC(=O)[C@H](CC(=O)O)NC1=O)NC(=O)[C@H](CC(C)(C)C)NC(=O)[C@H](CC(=O)O)NC2=O (stereo partly drawn) [I-951, Ac-PL3-Asp-Npg-B5-Asp-TfeGA-Ala-Ala-Phe-Asn-PyrS2-3Thi-BztA-Hse-NH2]
3 | 0.39 |  | 10 (≈ 22.2 µg/mL) |  |  |  | 3.7 |  |  | CC(=O)N1CCC[C@]12CC=CCCCC1(CCCC=CCCCOC(=O)N3CC[C@@](C(=O)N[C@@H](Cc4ccccc4Cl)C(=O)N[C@@H](Cc4csc5ccccc45)C(=O)N[C@@H](CCC(N)=O)C(=O)NCCCCCCN=[N+]=[N-])(C3)NC(=O)[C@H](Cc3ccccc3)NC(=O)[C@H](Cc3ccccc3)NC(=O)[C@H](C)NC(=O)[C@H](C)NC(=O)[C@H](CN(CC(=O)O)CC(F)(F)F)NC(=O)[C@H](CC(=O)O)NC1=O)NC(=O)[C@H](CC(C)(C)C)NC(=O)[C@H](CC(=O)O)NC2=O (stereo partly drawn) [I-1085, Ac-PL3-Asp-Npg-B5-Asp-TfeGA-Ala-Ala-Phe-Phe-PyrS2-2C1F-BztA-Gln-6AzHex]
4 |  | 0.101 | 10 (≈ 19.7 µg/mL) |  |  |  | 2.73 |  |  | CC(=O)N1CCC[C@]12CC=CCCCC1(CCCC=CCCCOC(=O)N3CC[C@@](C(=O)N[C@@H](Cc4ccccc4Cl)C(=O)N[C@@H](Cc4csc5ccccc45)C(=O)N[C@@H](C(N)=O)[C@H](C)O)(C3)NC(=O)[C@H](Cc3ccccc3)NC(=O)[C@H](Cc3ccccc3)NC(=O)[C@H](C)NC(=O)[C@H](C)NC(=O)[C@H](CCC(=O)O)NC(=O)[C@H](CC(=O)O)NC1=O)NC(=O)[C@H](CC(C)(C)C)NC(=O)[C@H](CC(=O)O)NC2=O (stereo partly drawn) [I-1038, Ac-PL3-Asp-Npg-B5-Asp-Glu-Ala-Ala-Phe-Phe-PyrS2-2C1F-BztA-dThr-NH2]
5 |  | 0.04 |  |  |  |  | 2.55 |  | 20 (≈ 36.6 µg/mL) | CC(=O)N1CCC[C@]12CC=CCCCC1(CCCC=CCCCOC(=O)N3CC[C@@](C(=O)N[C@@H](Cc4ccsc4)C(=O)N[C@@H](Cc4csc5ccccc45)C(N)=O)(C3)NC(=O)[C@H](CC(N)=O)NC(=O)[C@H](Cc3ccccc3)NC(=O)[C@H](C)NC(=O)[C@H](C)NC(=O)[C@H](CCCNC(N)=O)NC(=O)[C@H](CC(=O)O)NC1=O)NC(=O)[C@H](CC(C)(C)C)NC(=O)[C@H](CC(=O)O)NC2=O (stereo partly drawn) [I-861, Ac-PL3-Asp-Npg-B5-Asp-Cit-Ala-Ala-Phe-Asn-PyrS2-3Thi-BztA-NH2]

More lines, now with the values behind:

Row | SMILES | IC50 [1, 2] [µM] | IC50 ([1]; read-out: beta-Catenin FP IC50) [µM] | Solubility (Solubility in PBS) [µM] | CHI Log D (CHI Log D procedure) | IC50 [1, 3] [µM] | IC50 ([1]; read-out: FP EC50) [µM] | chromatographic logD (CHI Log D procedure) | IC50 ([1]; Table E2-1, read-out: beta-Catenin FP IC50) [µM] | Solubility (Solubility in PBS; Solubility (uM)) [µM]
6 | CC[C@H](C)[C@@H]1NC(=O)[C@H](CC(=O)O)NC(=O)[C@]2(CC=CCCCC3(CCCC=CCCCCCC[C@@](C)(C(=O)N[C@@H](Cc4ccsc4)C(=O)N[C@@H](Cc4csc5ccccc45)C(=O)N[C@@H](Cc4c[nH]cn4)C(N)=O)NC(=O)[C@H](CC(N)=O)NC(=O)[C@H](Cc4ccccc4)NC(=O)[C@H](C)NC(=O)[C@H](C)NC(=O)[C@H](CC(=O)O)NC(=O)[C@H](CC(=O)O)NC3=O)NC1=O)CCCN2C(C)=O (stereo partly drawn) [I-555, Ac-PL3-Asp-Ile-B5-Asp-Asp-Ala-Ala-Phe-Asn-S8-3Thi-BztA-His-NH2] |  |  | 41 (≈ 76.7 µg/mL) | 2.374 | 0.041 | 0.041 |  |  | 
7 | CC(=O)N1CCC[C@]12CC=CCCCC1(CCCC=CCCCCCC[C@@](C)(C(=O)N[C@@H](Cc3ccccc3)C(=O)N[C@@H](Cc3csc4ccccc34)C(=O)N[C@@H](C(N)=O)[C@H](C)O)NC(=O)[C@H](CC(N)=O)NC(=O)[C@H](Cc3ccccc3)NC(=O)[C@H](C)NC(=O)[C@H](C)NC(=O)[C@H](CCC(=O)O)NC(=O)[C@H](CC(=O)O)NC1=O)NC(=O)[C@H](CC(C)C)NC(=O)[C@H](CC(=O)O)NC2=O (stereo partly drawn) [I-755, Ac-PL3-Asp-Leu-B5-Asp-Glu-Ala-Ala-Phe-Asn-S8-Phe-BztA-dThr-NH2] |  | 0.088 | 47 (≈ 86.6 µg/mL) | 2.684 |  | 0.088 |  |  | 
8 | CC(=O)N1CCC[C@]12CC=CCCCC1(CCCC=CCCCCCC[C@@](C)(C(=O)N[C@@H](Cc3ccsc3)C(=O)N[C@@H](Cc3csc4ccccc34)C(N)=O)NC(=O)[C@H](CC(N)=O)NC(=O)[C@H](Cc3ccccc3)NC(=O)[C@H](C)NC(=O)[C@H](C)NC(=O)[C@H](CCC(=O)O)NC(=O)[C@H](CC(=O)O)NC1=O)NC(=O)[C@H](CC(C)(C)C)NC(=O)[C@H](CC(=O)O)NC2=O (stereo partly drawn) [I-719, Ac-PL3-Asp-Npg-B5-Asp-Glu-Ala-Ala-Phe-Asn-S8-3Thi-BztA-NH2] |  |  | 28 (≈ 49.3 µg/mL) | 2.818 | 0.038 | 0.038 |  |  | 
9 | CC(=O)N1CCC[C@]12CC=CCCCC1(CCCC=CCCCCCC[C@@](C)(C(=O)N[C@@H](Cc3ccccc3)C(=O)N[C@@H](Cc3csc4ccccc34)C(=O)N[C@@H](CCC(N)=O)C(N)=O)NC(=O)[C@H](CC(N)=O)NC(=O)[C@H](Cc3cscn3)NC(=O)[C@H](C)NC(=O)[C@H](C)NC(=O)[C@H](CCC(=O)O)NC(=O)[C@H](CC(=O)O)NC1=O)NC(=O)[C@H](C)NC(=O)[C@H](CC(=O)O)NC2=O (stereo partly drawn) [I-524, Ac-PL3-Asp-Ala-B5-Asp-Glu-Ala-Ala-4Thz-Asn-S8-Phe-BztA-Gln-NH2] |  |  | 50 (≈ 91.7 µg/mL) |  | 2.55 |  | 1.89 |  | 
10 | CC(=O)N1CCC[C@]12CC=CCCCC1(CCCC=CCCCCCC[C@@](C)(C(=O)N[C@@H](Cc3ccccc3)C(=O)N[C@@H](Cc3csc4ccccc34)C(=O)N[C@@H](Cc3cn(C)cn3)C(N)=O)NC(=O)[C@H](CC(N)=O)NC(=O)[C@H](Cc3ccccc3)NC(=O)[C@H](C)NC(=O)[C@H](C)NC(=O)[C@H](CCC(=O)O)NC(=O)[C@H](CC(=O)O)NC1=O)NC(=O)[C@H](C)NC(=O)[C@H](CC(=O)O)NC2=O (stereo partly drawn) [I-478, Ac-PL3-Asp-Ala-B5-Asp-Glu-Ala-Ala-Phe-Asn-S8-Phe-BztA-1MeH-NH2] |  |  | 42 (≈ 77.7 µg/mL) | 2.052 | 0.071 | 0.071 |  |  | 
11 | CC(=O)N1CCC[C@]12CC=CCCCC1(CCCC=CCCCCCC[C@@](C)(C(=O)N[C@@H](Cc3ccccc3)C(=O)N[C@@H](Cc3c[nH]c4ccccc34)C(=O)N[C@@H](CCC(N)=O)C(N)=O)NC(=O)[C@H](C(C)C)NC(=O)[C@H](Cc3ccco3)NC(=O)[C@H](C)NC(=O)[C@H](C)NC(=O)[C@H](CC(=O)O)NC(=O)[C@H](CC(=O)O)NC1=O)NC(=O)[C@H](C)NC(=O)[C@H](CC(=O)O)NC2=O (stereo partly drawn) [I-327, Ac-PL3-Asp-Ala-B5-Asp-Asp-Ala-Ala-2FurA-Val-S8-Phe-Trp-Gln-NH2] | 4.72 |  | 43 (≈ 76.2 µg/mL) | 1.958 |  |  |  | 4.72 | 
12 | CC(=O)N1CCC[C@]12CC=CCCCC1(CCCC=CCCCCCC[C@@](C)(C(=O)N[C@@H](Cc3ccccc3)C(=O)N[C@@H](Cc3csc4ccccc34)C(=O)N[C@@H](CCC(N)=O)C(N)=O)NC(=O)[C@H](CC(N)=O)NC(=O)[C@H](Cc3ccccc3)NC(=O)[C@H](C)NC(=O)[C@H](C)NC(=O)[C@H](CNS(C)(=O)=O)NC(=O)[C@H](CC(=O)O)NC1=O)NC(=O)[C@H](C)NC(=O)[C@H](CC(=O)O)NC2=O (stereo partly drawn) [I-533, Ac-PL3-Asp-Ala-B5-Asp-[MeSO2]Dap-Ala-Ala-Phe-Asn-S8-Phe-BztA-Gln-NH2] |  |  |  |  | 0.155 |  | 2.29 |  | 44 (≈ 81.9 µg/mL)
13 | CC(=O)N1CCC[C@]12CC=CCCCC1(CCCC=CCCCCCC[C@@](C)(C(=O)N[C@@H](Cc3ccccc3)C(=O)N[C@@H](Cc3csc4ccccc34)C(=O)N[C@@H](Cc3c[nH]cn3)C(N)=O)NC(=O)[C@H](CCC(N)=O)NC(=O)[C@H](Cc3ccccc3)NC(=O)[C@H](C)NC(=O)[C@H](C)NC(=O)[C@H](CN(CC(=O)O)CC(F)(F)F)NC(=O)[C@H](CC(=O)O)NC1=O)NC(=O)[C@H](C)NC(=O)[C@H](CC(=O)O)NC2=O (stereo partly drawn) [I-499, Ac-PL3-Asp-Ala-B5-Asp-TfeGA-Ala-Ala-Phe-Gln-S8-Phe-BztA-His-NH2] |  |  |  |  | 0.123 |  | 2.17 |  | 48 (≈ 93.5 µg/mL)
